Our source for the IC50, inhibition and Inhibition values is ChEMBL document CHEMBL1128901, “C-Attached aminoalkylindoles: potent cannabinoid mimetics” (Bioorg Med Chem Lett, 1996).

The IC50 is the concentration at which inhibition is half-maximal. The low end stands for inhibition by little substance, the high end for a need for much substance. What is called inhibition is the relative decrease from the control value, in per cent. What is called Inhibition is the change of the read-out against control, counted positive when it falls. A low value points to a weak effect.

Each structure is given as a SMILES string.

For assay [1], the species on record is Mus musculus. Put plainly: In vitro inhibition of electrically induced contractions in isolated mouse vas deferens (MVD) preparations. The class given is functional.
In assay [2] the target is Cannabinoid receptor (Rattus norvegicus, UniProt Q9QZN9+P20272). Put plainly: Compound was evaluated for the inhibition of [3H]WIN-55212-2 binding in rat cerebellum membranes. The assay is classed as cell membranes, Membrane.
In assay [3] the target is T1, Cannabinoid receptor (Rattus norvegicus) (UniProt Q9QZN9+P20272). Put plainly: Compound was evaluated for the inhibition of [3H]WIN-55212-2 binding in rat cerebellum membranes at the concentration 1000 nM. The class given is cell membranes. As to conditions: Membrane.
T1 sequence (P20272 whole entry, looked up): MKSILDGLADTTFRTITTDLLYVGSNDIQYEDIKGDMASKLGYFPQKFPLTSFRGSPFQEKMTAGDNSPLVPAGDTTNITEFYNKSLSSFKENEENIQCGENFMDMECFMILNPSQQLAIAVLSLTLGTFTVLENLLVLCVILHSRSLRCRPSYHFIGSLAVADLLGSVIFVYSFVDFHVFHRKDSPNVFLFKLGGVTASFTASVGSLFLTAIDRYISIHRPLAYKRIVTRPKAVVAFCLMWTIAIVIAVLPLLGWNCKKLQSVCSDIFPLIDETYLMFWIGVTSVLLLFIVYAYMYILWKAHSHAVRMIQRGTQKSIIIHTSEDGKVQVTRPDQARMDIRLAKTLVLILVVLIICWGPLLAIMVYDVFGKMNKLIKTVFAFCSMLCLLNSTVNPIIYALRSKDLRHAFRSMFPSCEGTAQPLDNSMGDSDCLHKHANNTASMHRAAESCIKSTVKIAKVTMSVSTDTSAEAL
T1 sequence (Q9QZN9 whole entry, looked up): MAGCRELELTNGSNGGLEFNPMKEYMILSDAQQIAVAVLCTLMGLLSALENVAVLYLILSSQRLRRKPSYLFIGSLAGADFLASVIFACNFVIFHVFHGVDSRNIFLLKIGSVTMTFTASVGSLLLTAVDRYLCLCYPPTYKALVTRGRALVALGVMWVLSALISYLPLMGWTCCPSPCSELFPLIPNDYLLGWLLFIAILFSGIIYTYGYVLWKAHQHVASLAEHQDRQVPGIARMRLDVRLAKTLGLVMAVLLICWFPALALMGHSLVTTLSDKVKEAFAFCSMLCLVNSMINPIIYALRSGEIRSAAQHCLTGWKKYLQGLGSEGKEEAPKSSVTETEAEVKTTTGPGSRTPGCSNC
The target in assay [4] is T1, Cannabinoid receptor (Rattus norvegicus). Description: Compound was evaluated for the inhibition of [3H]WIN-55212-2 binding in rat cerebellum membranes at the concentration 3000 nM. The class given is cell membranes. As to conditions: Membrane.

In the case of `CN1CCN(C)C(Cn2cc(C(=O)c3cccc4ccccc34)c3ccccc32)C1` (centres undefined), the IC50 in assay [1] was determined as 15 nM; in assay [2], 51 nM.
The corresponding values for `Cc1c(C(=O)c2cccc3ccccc23)c2ccccc2n1CC1CCCN1C` (centres undefined) are 2.4 nM and 6.5 nM.
For the compound `COc1ccc(C(=O)c2c(C)n(CC3CCCCN3C)c3ccccc23)cc1` (centres undefined), the 50% inhibitory concentration (IC50) in assay [1] stood at 134 nM; in assay [2], 699 nM.
On to `COc1ccc(C(=O)c2c(C)n(CC3CSCCN3C)c3ccccc23)cc1` (centres undefined), for which the inhibition in assay [3] was found to be 40%. The midpoint of inhibition in assay [1], the IC50, lay at 1150 nM.
The compound `COc1ccc(C(=O)c2c(C)n(C3CCN(C)CC3)c3ccccc23)cc1` came in with an IC50 in assay [1] above 10000 nM.
For the compound `COc1ccc(C(=O)c2c(C)n(CC3COCCN3C)c3ccccc23)cc1` (centres undefined), the IC50 in assay [1] worked out at 210 nM. The inhibition in assay [4] was determined as 43%.
Regarding `O=C(c1cccc2ccccc12)c1cn(CC2CCCCN2)c2ccccc12` (centres undefined), the IC50 was found to be 3 nM in assay [1] and 6.6 nM in assay [2].
The like results for `CN1CCCCC1Cn1cc(C(=O)c2cccc3ccccc23)c2ccccc21` (centres undefined) were, in that order, 0.47 nM and 1.22 nM.
The like results for `COc1ccc(C(=O)c2c(C)n(C[C@@H]3CCCN3C)c3ccccc23)cc1` were, in that order, 37 nM and 497 nM.
Turning to `COc1ccc(C(=O)c2c(C)n(CC3CN(C)CCO3)c3ccccc23)cc1` (centres undefined), the concentration for half-maximal inhibition (IC50) in assay [1] is above 10000 nM.
Same read-out and setting: in the case of `CCN1CCCC1Cn1c(C)c(C(=O)c2ccc(OC)cc2)c2ccccc21` (centres undefined) it was above 10000 nM.
For the compound `COc1ccc(C(=O)c2cn(CC3CCCCN3C)c3ccccc23)cc1` (centres undefined), the half-maximal inhibitory concentration (IC50) in assay [1] stood at 2.6 nM; in assay [2], 9.7 nM.
`COc1ccc(C(=O)c2c(C)n(CC3CCCN(C)C3)c3ccccc23)cc1` (centres undefined) showed a concentration for half-maximal inhibition (IC50) in assay [1] above 10000 nM.
The same measure, in the same setting: in the case of `COc1ccc(C(=O)c2c(C)n(CC3CCCN3)c3ccccc23)cc1` (centres undefined) it was 220 nM.
On to `COc1ccc(C(=O)c2c(C)n(CC3CN(C)CCN3C)c3ccccc23)cc1` (centres undefined), for which the inhibition in assay [3] was -8%. The same compound gave a 50% inhibitory concentration (IC50) in assay [1] of 1430 nM.
Take `CN1CCOCC1Cn1cc(C(=O)c2cccc3ccccc23)c2ccccc21` (centres undefined): the results for the half-inhibitory concentration (IC50) in assay [1] and in assay [2] were 0.4 nM and 3 nM, respectively.
As to `COc1ccc(C(=O)c2c(C)n(CC3C[S+]([O-])CCN3C)c3ccccc23)cc1` (centres undefined), the inhibition in assay [3] was -10%. In assay [1], the IC50 is above 10000 nM.
In assay [2], `O=C(c1cccc2ccccc12)c1cn(CCN2CCOCC2)c2ccccc12` showed a half-maximal inhibitory concentration (IC50) of 7.8 nM.
`COc1ccc(C(=O)c2cn(CC3CCCN3C)c3ccccc23)cc1` (centres undefined): inhibition in assay [1] was half-maximal at 8 nM (IC50).
As to `COc1ccc(C(=O)c2c(C)n(C[C@H]3CCCN3C)c3ccccc23)cc1`, the inhibition in assay [3] worked out at 7%. Besides, the Inhibition in assay [1] is 80%.
In the case of `COc1ccc(C(=O)c2c(C)n(CCC3CCCCN3C)c3ccccc23)cc1` (centres undefined), in assay [1], the half-maximal inhibitory concentration (IC50) is above 10000 nM.
In the case of `Cc1c(C(=O)c2cccc3ccccc23)c2ccccc2n1CC1CCCCN1C` (centres undefined), the IC50 amounted to 1.2 nM in assay [1] and 5.4 nM in assay [2].
`COc1ccc(C(=O)c2c(C)n(CC3CCCN3C)c3ccccc23)cc1` (centres undefined): the inhibition in assay [3] is 53%. Moreover, it took 63 nM to reach half-maximal inhibition in assay [1] (IC50).
The compound `COc1ccc(C(=O)c2c(C)n(C3CCCN(C)C3)c3ccccc23)cc1` (centres undefined) registered an Inhibition in assay [1] of 80%.
